# Values quoted from earlier work, collected in the PKSmart pharmacokinetics tables (Seal et al. 2025).
# Assay: Lombardo, Berellini, Obach 2018, Drug Metab Dispos 46:1466, doi 10.1124/dmd.118.082966
# Details: human; for MRT / Vd / clearance / half-life: in vivo, iv; for fraction unbound: plasma
structure (smiles),measurement,value
CN(C)[C@@H]1C(O)=C(C(N)=O)C(=O)[C@@]2(O)C(O)=C3C(=O)c4c(O)ccc(Cl)c4[C@@](C)(O)[C@H]3C[C@@H]12,MRT,7.4 h
same,Vd,0.9 L/kg
same,clearance,2 mL/min/kg
same,half-life,7 h
CCCc1nc2c(C)cc(-c3nc4ccccc4n3C)cc2n1Cc1ccc(-c2ccccc2C(=O)O)cc1,MRT,11 h
same,Vd,5.3 L/kg
same,clearance,8.4 mL/min/kg
same,half-life,20 h
OC[C@H]1O[C@@H]2O[C@H]3[C@H](O)[C@@H](O)[C@@H](O[C@H]4[C@H](O)[C@@H](O)[C@@H](O[C@H]5[C@H](O)[C@@H](O)[C@@H](O[C@H]6[C@H](O)[C@@H](O)[C@@H](O[C@H]7[C@H](O)[C@@H](O)[C@@H](O[C@H]8[C@H](O)[C@@H](O)[C@@H](O[C@H]1[C@H](O)[C@H]2O)O[C@@H]8CO)O[C@@H]7CO)O[C@@H]6CO)O[C@@H]5CO)O[C@@H]4CO)O[C@@H]3CO,MRT,1.9 h
same,Vd,0.21 L/kg
same,clearance,1.8 mL/min/kg
same,half-life,1.6 h
CC(C)(N)CC(=O)NC1CCc2ccccc2N(Cc2ccc(-c3ccccc3-c3nnn[nH]3)cc2)C1=O (stereo not drawn),MRT,1.1 h
same,Vd,0.2 L/kg
same,clearance,3.05 mL/min/kg
same,half-life,3.8 h
same,fraction unbound,0.06
O=S(=O)(O)CCS,MRT,0.52 h
same,Vd,0.65 L/kg
same,clearance,20.5 mL/min/kg
same,half-life,0.36 h
O=C(/C=C/c1ccc(O)c2c1C(C(=O)OC(Cc1ccc(O)c(O)c1)C(=O)O)[C@@H](c1ccc(O)c(O)c1)O2)OC(Cc1ccc(O)c(O)c1)C(=O)O (stereo partly drawn),MRT,0.42 h
same,Vd,0.14 L/kg
same,clearance,7.17 mL/min/kg
same,half-life,0.29 h
same,fraction unbound,0.08
Cc1cccc(C)c1OCC(C)N (stereo not drawn),MRT,12 h
same,Vd,5.9 L/kg
same,clearance,8.3 mL/min/kg
same,half-life,9.9 h
same,fraction unbound,0.36
CN(C)C(=O)Oc1ccc[n+](C)c1,MRT,1.8 h
same,Vd,1.1 L/kg
same,clearance,9.6 mL/min/kg
same,half-life,1.5 h
CCC(C)CC(C)CCCCCCCCC(=O)NC1CC(O)C(NCCN)NC(=O)C2C(O)CCN2C(=O)C(C(O)CCN)NC(=O)C(C(O)C(O)c2ccc(O)cc2)NC(=O)C2CC(O)CN2C(=O)C(C(C)O)NC1=O (stereo not drawn),fraction unbound,0.035
CCC1=NC(=O)C2CSSCC/C=C/[C@H](CC(=O)NC(C(C)C)C(=O)N2)OC(=O)C(C(C)C)NC1=O (stereo partly drawn),MRT,2.6 h
same,clearance,7.4 mL/min/kg
same,half-life,11 h
same,fraction unbound,0.07
CON=C(C(=O)NC1C(=O)N2C(C(=O)O)=C(CN3C=CN4NC=CC=C34)CS[C@H]12)c1nsc(N)n1 (stereo partly drawn),MRT,2 h
same,Vd,0.24 L/kg
same,clearance,2.1 mL/min/kg
same,half-life,1.7 h
same,fraction unbound,0.74
CCOC(=O)Nc1ccc(NCc2ccc(F)cc2)cc1N,MRT,5 h
same,Vd,2.5 L/kg
same,clearance,8.3 mL/min/kg
same,half-life,9 h
same,fraction unbound,0.2
Cc1c(O)ccc2c1OC[C@@H](c1ccc(O)cc1)[C@H]2c1ccc(O)cc1,MRT,2.38 h
same,Vd,1.2 L/kg
same,clearance,8.42 mL/min/kg
same,half-life,5.3 h
O=C(c1ccc(F)c(F)c1Nc1ccc(I)cc1F)N1CC(O)([C@@H]2CCCCN2)C1,MRT,96.6 h
same,Vd,15.4 L/kg
same,clearance,2.8 mL/min/kg
same,half-life,68.8 h
same,fraction unbound,0.05
O=C(O[C@H]1CC2CC[C@@H](C1)[N+]21CCCC1)C(O)(c1ccccc1)c1ccccc1,MRT,6.1 h
same,Vd,5.1 L/kg
same,clearance,13.9 mL/min/kg
same,half-life,5 h
same,fraction unbound,0.33
O=C1CN=C(c2ccccc2)c2cc([N+](=O)[O-])ccc2N1,MRT,33 h
same,Vd,1.7 L/kg
same,clearance,0.86 mL/min/kg
same,half-life,26 h
Nc1nc(=O)c2nc(CNc3ccc(C(=O)NC(CCC(=O)O)C(=O)O)cc3)cnc2[nH]1 (stereo not drawn),MRT,3.1 h
same,Vd,9.7 L/kg
same,clearance,52 mL/min/kg
same,half-life,2.6 h
same,fraction unbound,0.5
CCNC(=O)CCC/C=C\C[C@@H]1[C@@H](/C=C\[C@@H](O)CCc2ccccc2)[C@H](O)C[C@@H]1O,Vd,0.67 L/kg
same,clearance,25 mL/min/kg
same,half-life,0.45 h
same,fraction unbound,0.12
Cn1c(COP(=O)(NCCBr)NCCBr)cnc1[N+](=O)[O-],MRT,0.72 h
same,Vd,0.64 L/kg
same,clearance,14.8 mL/min/kg
same,half-life,1 h
OCCN1CCN(CCCN2c3ccccc3Sc3ccc(Cl)cc32)CC1,MRT,11 h
same,Vd,18 L/kg
same,clearance,27 mL/min/kg
same,half-life,9.4 h
same,fraction unbound,0.07
Cn1c(CNc2ccc(C(=N)N)cc2)nc2cc(C(=O)N(CCC(=O)O)c3ccccn3)ccc21,MRT,7.4 h
same,Vd,0.85 L/kg
same,clearance,1.93 mL/min/kg
same,half-life,7.3 h
same,fraction unbound,0.65
Cc1ncc([N+](=O)[O-])n1C[C@H](O)CCl,MRT,18.1 h
same,Vd,1.16 L/kg
same,clearance,1.08 mL/min/kg
same,half-life,12 h
same,fraction unbound,0.88
CC(C)C1CCC(C(=O)NC(Cc2ccccc2)C(=O)O)CC1 (stereo not drawn),MRT,1.4 h
same,Vd,0.15 L/kg
same,clearance,1.8 mL/min/kg
same,half-life,1.5 h
COc1c(C)c2c(c(O)c1C/C=C(\C)CCC(=O)O)C(=O)OC2,MRT,6.5 h
same,Vd,0.77 L/kg
same,clearance,2.33 mL/min/kg
same,half-life,9.7 h
same,fraction unbound,0.02
Cc1ccnc2c1NC(=O)c1cccnc1N2C1CC1,MRT,81 h
same,Vd,1.3 L/kg
same,clearance,0.3 mL/min/kg
same,half-life,53 h
O=C1CN=C(c2ccccn2)c2cc(Br)ccc2N1,MRT,28 h
same,Vd,0.85 L/kg
same,clearance,0.51 mL/min/kg
same,half-life,21 h
CC(S)C(=O)NCC(=O)O (stereo not drawn),MRT,15.7 h
same,Vd,1.39 L/kg
same,clearance,1.48 mL/min/kg
same,half-life,55 h
same,fraction unbound,0.45
CCCNC(=O)NS(=O)(=O)c1ccc(Cl)cc1,MRT,70 h
same,Vd,0.19 L/kg
same,clearance,0.045 mL/min/kg
same,half-life,46 h
Cc1cnc(C(=O)NC2CCCCC/C=C\[C@@H]3C[C@@]3(C(=O)NS(=O)(=O)C3CC3)NC(=O)C3C[C@@H](Oc4nc5ccccc5c5ccccc45)CN3C2=O)cn1 (stereo partly drawn),MRT,3.96 h
same,Vd,1.37 L/kg
same,clearance,5.74 mL/min/kg
same,half-life,8.71 h
same,fraction unbound,0.022
CN(C)c1cc(CNCC(C)(C)C)c(O)c2c1C[C@H]1C[C@H]3[C@H](N(C)C)C(O)=C(C(N)=O)C(=O)[C@@]3(O)C(O)=C1C2=O,MRT,19.2 h
same,Vd,2.7 L/kg
same,clearance,2.34 mL/min/kg
same,half-life,15 h
CCCCNc1cc(C(=O)O)cc(S(N)(=O)=O)c1Oc1ccccc1,MRT,1.1 h
same,Vd,0.16 L/kg
same,clearance,2.5 mL/min/kg
same,half-life,1.2 h
O=C(O[C@H]1CN2CCC1CC2)N1CCc2ccccc2[C@@H]1c1ccccc1,MRT,65 h
same,Vd,8.2 L/kg
same,half-life,52 h
